Data as given in patent publication US10398689B2, “Benzopiperidine derivative, preparation method thereof and medical use thereof” (Jiangsu Hengrui Medicine Co., Ltd., priority 2015, dated 2019).

Columns and labels:
Format in all cases: cell-based
ER (estrogen receptor) = biological target: T1, ER (estrogen receptor) (Homo sapiens, UniProt P03372); experiment: Inhibition of the binding of estrogen (E) to estrogen receptor (ER), MCF-7/ERE-luciferase reporter cells; details: MCF-7/ERE-luciferase cells, 0.1 nM estradiol, 24 hours, chemiluminescence; read-out: IC50 value of inhibition effect on the binding of E to ER
T1 construct: MCF-7/ERE-luciferase monoclonal cells were selected by transfection of MCF-7; host or cells: MCF-7/ERE-luciferase (only the ERE-luciferase reporter was transfected)
T1 sequence (P03372 1-595): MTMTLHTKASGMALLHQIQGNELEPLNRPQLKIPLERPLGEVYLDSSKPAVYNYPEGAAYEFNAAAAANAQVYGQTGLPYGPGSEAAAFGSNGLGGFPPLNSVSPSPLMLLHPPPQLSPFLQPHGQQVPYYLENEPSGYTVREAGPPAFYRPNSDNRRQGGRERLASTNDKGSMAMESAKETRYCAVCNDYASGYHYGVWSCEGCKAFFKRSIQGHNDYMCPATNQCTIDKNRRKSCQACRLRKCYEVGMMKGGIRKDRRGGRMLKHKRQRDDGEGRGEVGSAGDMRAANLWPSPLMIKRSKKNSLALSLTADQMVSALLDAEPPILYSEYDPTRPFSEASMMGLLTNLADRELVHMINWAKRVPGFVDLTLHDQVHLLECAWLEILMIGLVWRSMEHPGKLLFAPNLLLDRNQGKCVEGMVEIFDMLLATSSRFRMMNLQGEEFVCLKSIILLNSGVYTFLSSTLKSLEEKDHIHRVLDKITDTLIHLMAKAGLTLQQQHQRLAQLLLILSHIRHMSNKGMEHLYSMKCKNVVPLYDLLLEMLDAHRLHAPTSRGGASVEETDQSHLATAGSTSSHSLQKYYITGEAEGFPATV
Description: The compounds of the present invention have an inhibition effect on the binding of E (estrogen) to ER (estrogen receptor), thereby blocking the binding of a complex of E and ER complex to ERE (estrogen responsive element), and subsequently blocking the expression of downstream luciferase protein.
The inhibition effect of the compounds on the binding of E to ER in vitro was tested by the following method.
The object of this experiment was to determine the inhibition effect of the compounds on the binding of E to ER, and the in vitro activity of the compounds was evaluated according to the IC50 values.
ERE was cloned into the upstream of the luciferase gene, and MCF-7/ERE-luciferase monoclonal cells were selected by transfection of MCF-7 (Cell Bank of Chinese Academy of Sciences typical culture preservation Committee, TCHu74). MCF-7/ERE-luciferase cells were inoculated into the MEM medium (hyclone, SH30024.01B) containing 10% charcoal stripped FBS (Moregate, FBSF), 1% sodium pyruvate (Sigma, S8636), 1% nonessential amino acids (Sigma, M7145) and 500 μg/ml G418 in a 96-well plates with a density of 30,000 cells/well, and the cells were incubated under the conditions of 37° C., and 5% CO2. The drug was prepared as a 20 mM stock solution that was later diluted with 100% DMSO in 10 fold concentration gradient, and then diluted 20-fold with the medium DMEM. After incubation for 24 hours, the medium was removed, then 0.1 nM estradiol (Sigma, E2758) and 10 μl of the drug diluted with the medium were added to each well, and the control group was added with DMSO. The plate was gently shaken and incubated in a incubator at 37° C., 5% CO2. After 24 hours, the cell culture medium was discarded, Then, 50 μl of the prepared luciferase substrate (Promega, E6110) was added to each well, and the plate was placed in the dark at room temperature for 10-15 minutes, then the chemiluminescence signal value was determined.
The inhibition effect of the compounds of the present invention on the binding of E to ER was tested by the experiment described above. The values of the chemiluminescence signal vs the logarithmic concentrations of the compounds were plotted using Graphpad Prism, and the measured IC50 values are shown in Table 1.

ERα = biological target: T2, ERα (Homo sapiens, UniProt P03372); experiment: Degradation effect on ERα in MCF-7 cells (ERα Duoset ELISA); details: MCF7; compound at 3 μM, relative to positive control AZD-9496 at 3 μM set to 100%
T2 construct: host or cells: MCF-7
T2 sequence (P03372 1-595): T1 sequence (P03372 1-595)
Description: In order to determine the degradation effect on ER induced by the compound of present invention, the following method was used to determine the degradation effect of the compounds of the present invention on ER.
MCF-7 cell line (TChu 74, Cell Bank of Chinese Academy of Sciences typical culture preservation Committee)
ERα Duoset Kit (#DYC5715E, R&D System)
MCF-7 cells well incubated in DMEM/F-12 medium containing 10% FBS.
On the first day of the experiment, MCF-7 cells were resuspended in DMEM/F-12 medium containing 10% FBS treated by activated carbon, then inoculated into a 48-well plate with a density of 50,000 cells/well and incubated for 22-24 hours.
On the second day of the experiment, the test compound was diluted with medium and added to a 48-well plate. The ERα-capture antibody was diluted to 1 μg/ml with PBS, and added with 100 μl/well to a 96-well plate at 100 μl/well. The plate was sealed and coated overnight at room temperature.
On the third day of the experiment, the coated 96-well plate was washed twice with PBS, added with a sealing solution (1% BSA in PBS) at 110 μl/well and sealed for 1 hour at room temperature. The 48-well plate was washed once and the residual liquid was removed. Then, 60 μl of lysis buffer (6 M urea, 1 mM EDTA, 0.5% Triton X-100, 1 mM PMSF, Protease Inhibitor cocktail) was added to each well. After lysis on ice for 15 minutes, the diluent (1 mM EDTA, 0.5% TritonX-100 dissolved in PBS) was added. The cell-diluted lysate was transferred to a 96-well plate at 100 μl/well, then the plate was incubated at room temperature for 2 hours. The diluted primary antibody was added after the plate was washed 4 times with a washing liquid (PBST). After incubation for 1 hour, the 96-well plate was washed 4 times, and the second antibody was added, then the plate was incubated for 30 minutes. After the plate was washed with a washing liquid, TMB chromogenic solution was added and incubated for 15 minutes. The reaction was stopped by the addition of 1 M H2SO4, then the light absorption at a wavelength of 450 nm was read. The degradation effect of the compound AZD9496 at 3 μM was set to 100%, the Emax of other compounds=(ODnegative control−ODcompound 3 μM)/(ODnegative control−ODAZD9496 3 μM)×100%, and the negative control was a well with DMSO.

MCF7 cells = experiment: Inhibition of the proliferation of MCF7 cells (Cell Titer-Glo); details: Homo sapiens, MCF-7 cells, 72 hours, read-out: IC50 value of inhibition effect on the proliferation of MCF7 cells
Description: The object of this experiment was to determine the inhibition effect of the compounds on the proliferation activity of MCF7 cells, and the in vitro activity of the compounds was evaluated according to the IC50 values.
MCF-7 cells (Cell Bank of Chinese Academy of Sciences typical culture preservation Committee, TChu 74) were inoculated into the MEM medium (Hyclone, SH30024.01B) containing 10% FBS (Gibco, 10099-141), 1% sodium pyruvate (Sigma, S8636), and 1% nonessential amino acids (Sigma, M7145) in a 96-well plate with a density of 40,000 cells/well, and the cells were incubated under the conditions of 37° C., and 5% CO2. The compound was prepared as a 20 mM stock solution that was later diluted to 1000× final concentration with 100% DMSO, and then diluted with 20-fold medium containing 2% FBS. After incubation for 24 hours, the medium was removed and 90 μl of the medium containing 2% FBS and 10 μl of the drug were added to each well, 10 […] of DMSO was added to the control group, and the blank group contained only 100 μl medium containing 2% FBS. The plate was gently shaken and incubated in a incubator at 37° C., 5% CO2. After 72 hours later, 50 μl of mixed Cell Titer-Glo (Promega, G7571) was added to each well. The plate was shaken until the ingredients were mixed uniformly, and placed at room temperature for 10 minutes, then the chemiluminescence signal value was determined. The inhibition effect of the compound AZD9496 at 100 nM on the proliferation of MCF-7 cells was set to 100%, the maximum inhibition rate of other compounds=(chemiluminescence signal valuenegative control−chemiluminescence signal valuecompound 100 nm)/(chemiluminescence signal valuenegative control−chemiluminescence signal valueAZD9496 100 nm)×100%, and the negative control was a well with 0.5% DMSO.
The values of the chemiluminescence signals vs the logarithmic concentrations of the compounds were plotted using Graghpad Prism to obtain the IC50 values.

IC50 (ER (estrogen receptor)) [nM]	Emax at 3 µM (ERα) [%]	IC50 (MCF7 cells) [nM]	SMILES
0.6	115	0.23	CC(C)c1ccc(N2[C@@H](c3c(F)cc(/C=C/C(=O)O)cc3F)c3ccc(-c4cnn(C)c4)cc3C[C@@H]2C)cc1 (racemic) [Example 40, (E)-3-(3,5-Difluoro-4-((1S,3R/1R,3S)-2-(4-isopropylphenyl)-3-methyl-6-(1-methyl-1H-pyrazol-4-yl)-1,2,3,4-tetrahydroisoquinolin-1-yl)phenyl)acrylic acid]
1.71	114	0.4	CCc1ccc(N2[C@H](c3ccc(/C=C/C(=O)O)cc3)c3ccc(-c4cnn(C)c4)cc3C[C@H]2C)cc1 [Example 2, (E)-3-(4-((1R,3R)-2-(4-Ethylphenyl)-3-methyl-6-(1-methyl-1H-pyrazol-4-yl)-1,2,3,4-tetrahydroisoquinolin-1-yl)phenyl)acrylic acid]
0.27	136	0.42	CC1Cc2cc(-c3cnn(C)c3)ccc2C(c2c(F)cc(/C=C/C(=O)O)cc2F)N1c1ccc(C2CC2)cc1 [Example 4, (E)-3-(4-((1S,3R/1R,3S)-2-(4-Cyclopropylphenyl)-3-methyl-6-(1-methyl-1H-pyrazol-4-yl)-1,2,3,4-tetrahydroisoquinolin-1-yl)-3,5-difluorophenyl)acrylic acid]
1.42	111	0.65	COc1ccc(N2C(C)Cc3cc(-c4cnn(C)c4)ccc3C2c2ccc(/C=C/C(=O)O)cc2)cc1 [Example 46, (E)-3-(4-((1R,3R/1S,3S)-2-(4-Methoxyphenyl)-3-methyl-6-(1-methyl-1H-pyrazol-4-yl)-1,2,3,4-tetrahydroisoquinolin-1-yl)phenyl)acrylic acid]
